According to patent US4147796A, “1-(3-Hydroxyalk-1-yl)-5-(carboxyalkyl)hydantoin derivatives” (Beecham Group Limited, priority 1976, dated 1979):

Assays:
[1] = test system: bronchoconstriction induced by an histamine aerosol; experiment: Protection of conscious guinea pigs against bronchoconstriction induced by an histamine aerosol (Herxheimer test); type: in vivo, guinea pig; set-up: key to Aerosol route Activity (class symbol) / Oral route Activity (class symbol): A: active; conditions: mean of several experiments; for minimal effective dose: Cavia porcellus, read-out: Oral route Activity: dose at which active; for minimal effective dose / Oral route Activity (class symbol): oral route
Protocol: 2. the compounds were also examined for their ability to protect conscious guinea pigs against bronchoconstriction induced by an histamine aerosol (Herxheimer test). In these experiments the compounds were administered by aerosol or by oral administration. The results are shown in Table B. The results are the mean of several experiments.

[2] = test system: 5-hydroxytryptamine-induced constriction; experiment: Inhibition of 5-hydroxytryptamine induced bronchoconstriction in the anaesthetised, artificially respired guinea pig (Konzett-Rossler preparation); type: in vivo; conditions: Cavia porcellus, iv, read-out: ID50 against 5-hydroxytryptamine-induced constriction
Protocol: (§1) 1. The compounds were examined for their ability to inhibit 5-hydroxytryptamine or histamine induced bronchoconstriction in the anaesthetised, artificially respired guinea pig (Konzett-Rossler preparation). The compounds were administered intravenously.

[3] = test system: indomethacin induced gastric damage; experiment: Anti-ulcer activity: inhibition of indomethacin induced gastric damage in the rat; type: in vivo; conditions: 100 mg/kg orally, 30 minutes prior to 15 mg/kg indomethacin s.c., groups of 7 rats, score scale 1-9
Protocol: Anti-ulcer activity was assessed by the inhibition of indomethacin induced gastric damage in the rat according to the method of Eleghe (1974) Israeli J. Med. Sci. 10. 1451. Rats were starved overnight given 15 mg/kg indomethacin subcutaneously and sacrificed 4 hours later. Stomachs were reflated with n.saline, cut along the greater curvature pinned out and scored for gastric damage by the following system:
Score 1-3--according to degree of erythema and slight haemorrhage.
Score 4-6--according to degree of mucosal erosion.
Score 7-9--according to depth of gastric damage.
Groups of 7 rats were used for each treatment and the test compound or vehicle were administered 30 minutes prior to giving the indomethacin. Dose of test compound was 100 mg/kg orally and control groups receiving vehicle only were set up simultaneously. Mean values for each treatment were obtained using the above scoring system and the Mann Witney test applied for significance of difference between the values obtained with the treatments.

[4] = test system: platelet aggregation induced by collagen in human platelet rich plasma; experiment: Inhibition of collagen-induced platelet aggregation in vitro in human platelet rich plasma; type: cell-based; conditions: for inhibition at 100 µM: collagen-induced
Source text: The compounds were examined for their ability to inhibit platelet aggregation induced in vitro by collagen in human platelet rich plasma.

[5] = in vivo; set-up: species or system mice; conditions: mouse
Protocol: For example, Compound 17 was not toxic in mice at doses up to 300 mg/kg, orally, or at doses up to 100 mg/kg, intraperitoneally, whereas Compound 21 was not toxic at doses up to 900 mg/kg, orally, in mice.

[6] = test system: histamine-induced bronchoconstriction; experiment: Inhibition of histamine induced bronchoconstriction in the anaesthetised, artificially respired guinea pig (Konzett-Rossler preparation); type: in vivo; conditions: Cavia porcellus, iv, read-out: ID50 against histamine-induced constriction
Protocol: as §1

[7] = test system: pentagastrin-stimulated gastric acid secretion; experiment: Inhibition of pentagastrin-stimulated gastric acid secretion in the anaesthetised, perfused rat stomach preparation (Ghosh and Schild preparation); type: in vivo; conditions: i.v.
Protocol: The compounds were examined for their ability to inhibit pentagastrin-stimulated gastric acid secretion in the anaesthetised, perfused rat stomach preparation (Ghosh and Schild preparation). The compounds were administered intra-venously.

[8] = test system: heart fibrillation induced by chloroform; experiment: Anti-arrythmic activity: prevention of heart fibrillation in mice exposed to chloroform; type: in vivo; conditions: 100 mg/kg intraperitoneally, group of 3 mice
Source text: The compounds were examined for anti-arrythmic activity by determining their ability to prevent heart fibrillation in mice exposed to chloroform.

Row | SMILES | Aerosol route Activity (class symbol) [1] | ED50 [2] [µg/kg] | also measured
1 | CCCCCCC(C)(O)CCN1C(=O)N(CC)C(=O)C1CCCCCCC(=O)OCC (centres unmarked) [Compound 2, 1-(3'-hydroxy-3'-methyl-n-nonyl)-3-ethyl-5-(6"-ethoxycarbonyl-n-hexyl)hydantoin] | A | 6.8 | 
2 | CCCCCCCC(C)(O)CCN1C(=O)N(C)C(=O)C1CCCCCCC(=O)OC (centres unmarked) [Compound 1, 1-(3'-hydroxy-3'-methyl-n-decyl)-3-methyl-5-(6"-methoxycarbonyl-n-hexyl)hydantoin] | A | 4.5 | 
3 | CCCCC(C)C(C)(O)CCN1C(=O)N(C)C(=O)C1CCCCCCC(=O)O (centres unmarked) [Compound 22] |  | 3.2 | Test Mean Score + S.E. of Mean (gastric damage score) [3]: 0.00 ± 0.00
4 | CCCCC(C)C(C)(O)CCN1C(=O)N(C)C(=O)C1CCCCCCC(=O)OC (centres unmarked) [Compound 7] |  | 3.3 | 
5 | CCCCCCC(O)CCN1C(=O)N(C)C(=O)C1CCCCCCC(=O)O (centres unmarked) [Compound 24] |  | 6 | 
6 | CCCCCCC(C)(O)CCN1C(=O)N(C)C(=O)C1CCCCCCC(=O)OC (centres unmarked) [Compound 6] |  | 1.5 | 
7 | CCCCCCC(C)(O)CCN1C(=S)N(C)C(=O)C1CCCCCCC(=O)OC (centres unmarked) [Compound 30, 1-(3'-hydroxy-3'-methyl-n-nonyl)-3-methyl-5-(6"-methoxycarbonyl-n-hexyl)-2-thiohydantoin] |  |  | Test Mean Score + S.E. of Mean (gastric damage score) [3]: 0.14 ± 0.14
8 | COC(=O)CCCCCCC1C(=O)N(C)C(=O)N1CCC1(O)CCCCC1 (centres unmarked) [Compound 4] |  | 220 | 
9 | CCC(C)(O)CCN1C(=O)N(C)C(=O)C1CCCCCCC(=O)O (centres unmarked) [Compound 18] |  |  | inhibition at 100 µM [4]: 100%; IC50 ([4]; in vitro, read-out: IC50 against collagen-induced aggregation): 7 µM
10 | CCCCCCC(C)(O)CCN1C(=O)N(C)C(=O)C1CCCCCCC(=O)O (centres unmarked) [Compound 21, 1-(3'-hydroxy-3'-methyl-n-nonyl)-3-methyl-5-(6"-carboxy-n-hexyl)hydantoin] | A | 0.6 | NOAEL ([5]; po): ≥ 900000 µg/kg; minimal effective dose [1]: 250 µg/kg; Oral route Activity (class symbol) [1]: A; ED50 [6]: 0.6 µg/kg
11 | CCCCCCC(C)(O)CCN1C(=O)N(C(C)(C)C)C(=O)C1CCCCCCC(=O)O (centres unmarked) [Compound 25] |  |  | Test Mean Score + S.E. of Mean (gastric damage score) [3]: 1.14 ± 0.74
12 | CN1C(=O)C(CCCCCCC(=O)O)N(CCC2(O)CCCCC2)C1=O (centres unmarked) [Compound 19] |  | > 220 | 
13 | CCCCCCC(C)(O)CCN1C(=S)N(C)C(=O)C1CCCCCCC(=O)OCC (centres unmarked) [Compound 31] |  | 4.2 | Test Mean Score + S.E. of Mean (gastric damage score) [3]: 0.00 ± 0.00
14 | CCCCCCCC(C)(O)CCN1C(=O)N(C)C(=O)C1CCCCCCC(=O)O (centres unmarked) [Compound 17] | A | 8.5 | Test Mean Score + S.E. of Mean (gastric damage score) [3]: 0.43 ± 0.30; inhibited gastric acid secretion over the dose range [7]: 5000 to 10000 µg/kg; inhibition at 100 µM [4]: 34%; NOAEL ([5]; ip): ≥ 100000 µg/kg; NOAEL ([5]; po): ≥ 300000 µg/kg; prevention of fibrillation induced by chloroform [8]: prevented fibrillation
15 | CN1C(=O)C(CCCCCCC(=O)O)N(CCC(C)(O)c2ccccc2)C1=O (centres unmarked) [Compound 23] |  | 60 | 
16 | CCCCCCC(C)(O)CCN1C(=O)N(CC)C(=O)C1CCCCCCC(=O)O (centres unmarked) [Compound 16, 1-(3'-hydroxy-3'-methyl-n-nonyl)-3-ethyl-5-(6"-carboxy-n-hexyl)hydantoin] | A | 5.8 | 
17 | CCCCCCC(C)(O)CCN1C(=O)N(C)C(=O)C1CCCCCCC(=O)OCC (centres unmarked) [Compound 3] | A | 0.4 | minimal effective dose [1]: 250 µg/kg; Oral route Activity (class symbol) [1]: A
